# Measured values: patent US20220411419A1, “SMALL MOLECULE MODULATORS OF MHC-I” (RetroVirox, Inc., priority 2018, published 2022)
# Tests used:
# [1] = tested on: downmodulation of MHC-I molecules expressed on the surface of HIV infected SupT1 cells; experiment: cells; details: for EC50: Human immunodeficiency virus 1, SUP-T1, read-out: EC50 for inhibition of MHC-I downmodulation utilizing the R1 parameter; for activity at 100 µM: Human immunodeficiency virus 1, SUP-T1, read-out: R1 @ 100 μM (R1 value for MHC-I downmodulation as % of the vehicle control)
# [2] = in vitro; details: human, uninfected SupT1 cells
compound,measurement,setting,value
"CN(C(=O)CCc1cccc2c1OC(C)(C)C2)c1nc2c(s1)CCCC2 [Compound 106, 3-(2,2-Dimethyl-2,3-dihydrobenzofuran-7-yl)-N-methyl-N-(4,5,6,7-tetrahydrobenzo[d]thiazol-2-yl)propanamide]",EC50,[1],0.42 µM
same,CC50 at 48 h,[2],> 125 µM
"Cc1csc(NC(=O)COc2cccc3[nH]ccc23)n1 [Compound 133, 2-((1H-Indol-4-yl)oxy)-N-(4-methylthiazol-2-yl)acetamide]",EC50,[1],1.5 µM
same,CC50 at 48 h,[2],> 100 µM
"CC1(C)Cc2cccc(OCC(=O)Nc3nc(C4CC4)cs3)c2O1 [Compound 5, N-(4-Cyclopropylthiazol-2-yl)-2-((2,2-dimethyl-2,3-dihydrobenzofuran-7-yl)oxy)acetamide]",EC50,[1],0.55 µM
same,CC50 at 48 h,[2],> 100 µM
"Cc1csc(NC(=O)COc2cccc3c2OC(C)(C)C3)n1 [Compound 181, 2-((2,2-Dimethyl-2,3-dihydrobenzofuran-7-yl)oxy)-N-(4-methylthiazol-2-yl) acetamide]",EC50,[1],0.62 µM
same,CC50 at 48 h,[2],> 90 µM
"CC1(C)Cc2cccc(OCC(=O)Nc3nc4c(F)c(F)c(F)cc4s3)c2O1 [Compound 4, 2-((2,2-Dimethyl-2,3-dihydrobenzofuran-7-yl)oxy)-N-(4,5,6-trifluorobenzo [d]thiazol-2-yl)acetamide]",EC50,[1],0.068 µM
same,CC50 at 48 h,[2],> 100 µM
"Cc1cccc(NC(=O)COc2cccc3c2OC(C)(C)C3)n1 [Compound 8, 2-((2,2-Dimethyl-2,3-dihydrobenzofuran-7-yl)oxy)-N-(6-methylpyridin-2-yl) acetamide]",EC50,[1],23 µM
same,CC50 at 48 h,[2],> 100 µM
"COc1cccc(OCC(=O)N(C)c2nc3c(s2)CCCC3)c1 [Compound 121, 2-(3-Methoxyphenoxy)-N-methyl-N-(4,5,6,7-tetrahydrobenzo[d]thiazol-2-yl) acetamide]",EC50,[1],3.9 µM
same,CC50 at 48 h,[2],> 125 µM
"CC1(C)Cc2cccc(OCC(=O)Nc3cccc4cccnc34)c2O1 [Compound 178, 2-((2,2-Dimethyl-2,3-dihydrobenzofuran-7-yl)oxy)-N-(quinolin-8-yl) acetamide]",EC50,[1],> 25 µM
same,activity at 100 µM,[1],20%
same,CC50,[2],> 25 µM
same,CC50 at 48 h,[2],> 25 µM
"CN(C(=O)COc1cccc2c1OC(C)(C)C2)c1ccc(Cl)nn1 [Compound 81, N-(6-Chloropyridazin-3-yl)-2-((2,2-dimethyl-2,3-dihydrobenzofuran-7-yl)oxy)-N-methylacetamide]",EC50,[1],> 25 µM
same,activity at 100 µM,[1],67%
same,CC50,[2],> 125 µM
same,CC50 at 48 h,[2],> 125 µM
"CN(C(=O)COc1ccccc1C(F)(F)F)c1nc2c(s1)CCCC2 [Compound 160, N-Methyl-N-(4,5,6,7-tetrahydrobenzo[d]thiazol-2-yl)-2-(2-(trifluoromethyl)phenoxy)acetamide]",EC50,[1],0.28 µM
same,CC50 at 48 h,[2],> 125 µM
"Cc1cccc(CN(C(=O)COc2cccc3c2OC(C)(C)C3)c2nc3c(s2)CCCC3)n1 [Compound 39, 2-((2,2-Dimethyl-2,3-dihydrobenzofuran-7-yl)oxy)-N-((6-methylpyridin-2-yl)methyl)-N-(4,5,6,7-tetrahydrobenzo[d]thiazol-2-yl)acetamide]",EC50,[1],0.02 µM
same,CC50 at 48 h,[2],> 100 µM
"CN(C(=O)COc1cccc2cc[nH]c12)c1nc2c(s1)CCCC2 [Compound 128, 2-((1H-Indol-7-yl)oxy)-N-methyl-N-(4,5,6,7-tetrahydrobenzo[d]thiazol-2-yl) acetamide]",EC50,[1],> 25 µM
same,CC50 at 48 h,[2],> 125 µM
"CC1(C)Cc2cccc(OCC(=O)Nc3ccc(Br)cn3)c2O1 [Compound 66, N-(5-Bromopyridin-2-yl)-2-((2,2-dimethyl-2,3-dihydrobenzofuran-7-yl)oxy) acetamide]",EC50,[1],3.4 µM
same,CC50 at 48 h,[2],> 125 µM
"Cc1ccc(NC(=O)COc2cccc3c2OC(C)(C)C3)nc1C [Compound 73, 2-((2,2-Dimethyl-2,3-dihydrobenzofuran-7-yl)oxy)-N-(5,6-dimethylpyridin-2-yl)acetamide]",EC50,[1],0.21 µM
same,CC50 at 48 h,[2],> 100 µM
"CC(C)(C)OC(=O)N1CCC(CNC(=O)c2cnc(NC(=O)COc3cccc4c3OC(C)(C)C4)s2)C1 (stereo not drawn) [Compound 157, tert-Butyl 3-((2-(2-((2,2-dimethyl-2,3-dihydrobenzofuran-7-yl)oxy)acetamido)thiazole-5-carboxamido)methyl)pyrrolidine-1-carboxylate]",EC50,[1],> 25 µM
same,activity at 100 µM,[1],≥ 100%
same,CC50,[2],> 90 µM
same,CC50 at 48 h,[2],> 90 µM
"Cn1ccnc1CN(C(=O)COc1cccc2c1OC(C)(C)C2)c1nc2c(s1)CCCC2 [Compound 46, 2-((2,2-Dimethyl-2,3-dihydrobenzofuran-7-yl)oxy)-N-((1-methyl-1H-imidazol-2-yl)methyl)-N-(4,5,6,7-tetrahydrobenzo[d]thiazol-2-yl)acetamide]",EC50,[1],0.059 µM
same,CC50 at 48 h,[2],> 125 µM
"Cc1ccc(NC(=O)COc2cccc3c2OC(C)(C)C3)nc1 [Compound 177, 2-((2,2-Dimethyl-2,3-dihydrobenzofuran-7-yl)oxy)-N-(5-methylpyridin-2-yl) acetamide]",EC50,[1],0.24 µM
same,CC50 at 48 h,[2],> 100 µM
"Cc1csc(N(C(=O)COc2cccc3c2OC(C)(C)C3)c2ccncc2)n1 [Compound 95, 2-((2,2-Dimethyl-2,3-dihydrobenzofuran-7-yl)oxy)-N-(4-methylthiazol-2-yl)-N-(pyridin-4-yl)acetamide]",EC50,[1],0.95 µM
same,CC50 at 48 h,[2],> 125 µM
"CC1(C)Cc2cccc(OCC(=O)Nc3nc4c(Cl)cccc4s3)c2O1 [Compound 145, N-(4-Chlorobenzo[d]thiazol-2-yl)-2-((2,2-dimethyl-2,3-dihydrobenzofuran-7-yl)oxy)acetamide]",EC50,[1],0.091 µM
same,CC50 at 48 h,[2],> 90 µM
"Cc1ccc(N(C(=O)COc2cccc3c2OC(C)(C)C3)c2nc3c(s2)CCCC3)nn1 [Compound 92, 2-((2,2-Dimethyl-2,3-dihydrobenzofuran-7-yl)oxy)-N-(6-methylpyridazin-3-yl)-N-(4,5,6,7-tetrahydrobenzo[d]thiazol-2-yl)acetamide]",EC50,[1],25 µM
same,CC50 at 48 h,[2],> 100 µM
"COc1ccccc1N(C(=O)COc1cccc2c1OC(C)(C)C2)c1nc(C)cs1 [Compound 55, 2-((2,2-Dimethyl-2,3-dihydrobenzofuran-7-yl)oxy)-N-(2-methoxyphenyl)-N-(4-methylthiazol-2-yl)acetamide]",EC50,[1],0.21 µM
same,CC50 at 48 h,[2],> 125 µM
"Cc1cccc(OCC(=O)N(C)c2nc3c(s2)CCCC3)c1C [Compound 114, 2-(2,3-Dimethylphenoxy)-N-methyl-N-(4,5,6,7-tetrahydrobenzo[d]thiazol-2-yl)acetamide]",EC50,[1],1.2 µM
same,CC50 at 48 h,[2],> 125 µM
"COc1ccccc1OCC(=O)Nc1nc2c(Cl)cccc2s1 [Compound 188, N-(4-Chlorobenzo[d]thiazol-2-yl)-2-(2-methoxyphenoxy)acetamide]",EC50,[1],≥ 10 µM
same,activity at 100 µM,[1],37%
same,CC50,[2],> 100 µM
same,CC50 at 48 h,[2],> 100 µM
"Cc1csc(N(Cc2cccnc2)C(=O)COc2cccc3c2OC(C)(C)C3)n1 [Compound 34, 2-((2,2-Dimethyl-2,3-dihydrobenzofuran-7-yl)oxy)-N-(4-methylthiazol-2-yl)-N-(pyridin-3-ylmethyl)acetamide]",EC50,[1],1.4 µM
same,CC50 at 48 h,[2],12 µM
"Cc1ccccc1OCC(=O)N(C)c1nc2c(s1)CCCC2 [Compound 125, N-Methyl-N-(4,5,6,7-tetrahydrobenzo[d]thiazol-2-yl)-2-(o-tolyloxy) acetamide]",EC50,[1],0.88 µM
same,CC50 at 48 h,[2],> 125 µM
"Cc1csc(N(Cc2ncccn2)C(=O)COc2cccc3c2OC(C)(C)C3)n1 [Compound 43, 2-((2,2-Dimethyl-2,3-dihydrobenzofuran-7-yl)oxy)-N-(4-methylthiazol-2-yl)-N-(pyrimidin-2-ylmethyl)acetamide]",EC50,[1],0.71 µM
same,CC50 at 48 h,[2],> 100 µM
"CC1(C)Cc2cccc(OCC(=O)N(Cc3ccc[nH]3)c3nc4c(s3)CCCC4)c2O1 [Compound 51, N-((1H-Pyrrol-2-yl)methyl)-2-((2,2-dimethyl-2,3-dihydrobenzofuran-7-yl)oxy)-N-(4,5,6,7-tetrahydrobenzo[d]thiazol-2-yl)acetamide]",EC50,[1],0.015 µM
same,CC50 at 48 h,[2],> 125 µM
"CC1(C)Cc2cccc(OCC(=O)Nc3ccc4ccccc4n3)c2O1 [Compound 16, 2-((2,2-Dimethyl-2,3-dihydrobenzofuran-7-yl)oxy)-N-(quinolin-2-yl) acetamide]",EC50,[1],10 µM
same,CC50 at 48 h,[2],> 90 µM
"CC1(C)Cc2cccc(OCC(=O)Nc3nc(C(F)(F)F)cs3)c2O1 [Compound 21, 2-((2,2-dimethyl-2,3-dihydrobenzofuran-7-yl)oxy)-N-(4-(trifluoromethyl)thiazol-2-yl)acetamide]",EC50,[1],0.56 µM
same,CC50 at 48 h,[2],> 100 µM
"Cc1csc(NC(=O)COc2cccc3cc[nH]c23)n1 [Compound 134, 2-((1H-Indol-7-yl)oxy)-N-(4-methylthiazol-2-yl)acetamide]",EC50,[1],11 µM
same,CC50 at 48 h,[2],> 100 µM
"CC1(C)Cc2cccc(OCC(=O)Nc3nc(C(=O)N4CC(CO)C4)cs3)c2O1 [Compound 153, 2-((2,2-Dimethyl-2,3-dihydrobenzofuran-7-yl)oxy)-N-(4-(3-(hydroxymethyl)azetidine-1-carbonyl)thiazol-2-yl)acetamide]",EC50,[1],> 25 µM
same,activity at 100 µM,[1],39%
same,CC50,[2],> 90 µM
same,CC50 at 48 h,[2],> 90 µM
"CCOc1ccccc1OCC(=O)N(C)c1nc2c(s1)CCCC2 [Compound 112, 2-(2-Ethoxyphenoxy)-N-methyl-N-(4,5,6,7-tetrahydrobenzo[d]thiazol-2-yl) acetamide]",EC50,[1],0.22 µM
same,CC50 at 48 h,[2],> 125 µM
"Cc1csc(N(C(=O)COc2cccc3c2OC(C)(C)C3)c2ccccc2C)n1 [Compound 60, 2-((2,2-Dimethyl-2,3-dihydrobenzofuran-7-yl)oxy)-N-(4-methylthiazol-2-yl)-N-(o-tolyl)acetamide]",EC50,[1],3.8 µM
same,CC50 at 48 h,[2],> 100 µM
"Cc1ccc(NC(=O)CCc2cccc3c2OC(C)(C)C3)nn1 [Compound 103, 3-(2,2-Dimethyl-2,3-dihydrobenzofuran-7-yl)-N-(6-methylpyridazin-3-yl) propanamide]",EC50,[1],1.48 µM
same,CC50 at 48 h,[2],> 100 µM
